Reference: patent EP0599152A1, “Triazinones and Triazinophthalazinones possessing antiasthmatic/antiallergic, positive inotropic and antihypertensive activities” (ASTA Medica Aktiengesellschaft, priority 1992, dated 1994)

Legend:
[1] = test system: Histamin-Freisetzung aus Mastzellen; test: allergically induced histamine release (sensitised rats, method of Shore et al.); format: cell-based, Ratten; settings: Mast cell, concentration 10 µmol/l, read-out: Hemmung der Freisetzung
Source text: Die pharmakologische Testung auf Wirksamkeit bei der allergisch induzierten Histaminfreisetzung an sensibilisierten Ratten erfolgte gemäß der Versuchsvorschrift von P.A. Shore et al., I. Pharmacol. Exp. Ther., 127 (1959), S. 182.
Die Verbindung gemäß gemaß Beispiel 1 zeigt folgende Werte: Bei der allergisch induzierten Histamin-Freisetzung ergibt ein Konzentration 10 µmol/l eine 25 % - Hemmung der Freisetzung.

[2] = test system: Spätphaseneosinophile; test: inhibition of late-phase eosinophils in guinea pigs (Cartwright; eosinophil counting); format: in vivo, Meerschweinchen; settings: 30 mg pro Kilogramm Körpergewicht, p.o.
Protocol: (§1) Die Verbindung gemäß Beispiel 16 zeigt im Versuch der Hemmung der Spätphaseneosinophile in Meerschweinchen gemäß der Vorschrift von Cartwright, Diagnostic Laboratory Hematology, 1968, S. 48 und Mac Fortare et al, Eosinophil Counting, Brit. Med. 9., 2, 1187 (1951) in der Dosis von 30 mg pro Kilogramm Körpergewicht, gegeben p.o., einen Hemmwert von 80 %. Bei der Hemmung der LTD-4-Rezeptor-Bindung gemäß Borbe und Zierenberg, Pharmacopsychiatry 18, 314 319 (1985) ergab sich eine Hemmung von 50 % der Aktivität bei einer Konzentration von 7,4 µmol/l.

[3] = target: T1, LTD-4-Rezeptor (Homo sapiens, UniProt Q9Y271); test: inhibition of LTD-4 receptor binding (Borbe and Zierenberg); settings: read-out: Hemmung von 50 % der Aktivität bei einer Konzentration von
T1 sequence (Q9Y271 1-337): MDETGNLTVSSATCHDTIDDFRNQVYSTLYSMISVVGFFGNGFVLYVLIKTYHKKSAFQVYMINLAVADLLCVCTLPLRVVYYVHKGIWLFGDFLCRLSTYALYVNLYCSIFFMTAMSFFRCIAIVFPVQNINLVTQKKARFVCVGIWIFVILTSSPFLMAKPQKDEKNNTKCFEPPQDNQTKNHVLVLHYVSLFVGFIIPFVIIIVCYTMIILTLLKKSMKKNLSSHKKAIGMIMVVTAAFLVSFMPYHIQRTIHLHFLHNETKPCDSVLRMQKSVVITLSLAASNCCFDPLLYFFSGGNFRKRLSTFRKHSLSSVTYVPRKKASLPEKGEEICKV
Protocol: as §1

IC50 [3] [µM] | Structure (SMILES) | inhibition at 10 µM [1] [%] | Hemmwert [2] [%]
 | O=C1CN2N=C(c3ccccc3)c3ccccc3C2=NN1 [Beispiel 1, 7-Phenyl-2H-triazino(3,4a)phthalazin-3(4H)-on] | 25 | 
7.4 | CN1CC(=O)NN=C1c1ccc(OCc2ccc3ccccc3n2)c(Cl)c1 [Beispiel 16, 3-{3-Chlor-4-[(2-chinolyl)methoxy]phenyl}-4-methyl-4,5-dihydro-1,2,4-triazin-6-on] |  | 80
